Here are results for 1 compound from PubChem BioAssay AID2060627 (Molecular Pharmacology Branch, DTP, NCI, 2025).

pIC50: −log10 of the molar value. Values joined by “and” are separate entries in the source; they are usually repeats but may differ in a detail not shown here. Equal entries are not always repeated. A value given as a limit tells only on which side of the number the result lay.

The assay concerns 156681-154-R-J1-PDC complex spheroid viability. The assay is described as follows: Anticancer human tumor 156681-154-R-J1-PDC patient-derived melanoma cell line growth inhibition [CLK]. The settings on record: for viability, T/C: stronger effect = lower value. The text has this:
A high-throughput screen of multi-cell type tumor spheroids was designed to identify active combinations of […] and targeted small molecules. Complex spheroids include a stromal component modeled by human endothelial cells (HUVEC) and fibroblasts modeled by human mesenchymal stem cells (MSCs). The concentration ranges selected for each drug and investigational agent were based upon clinically achievable concentrations if the clinical Cmax of the agent was known.
Compounds. The drugs and investigational agents: cirtuvivint (SM08502; NSC835563), CC-671 (NSC850746), vemurafenib (NSC761431), tapotoclax (NSC804041), sotorasib (NSC818433), adagrasib (NSC831453), MRTX-1133 (NSC836407), BAY2416964 (NSC825713), copanlisib (NSC816437), inavolisib (NSC800729), abemaciclib (NSC768073), osimertinib (NSC779217), entinostat (NSC756642), eltanexor (KPT-8602, NSC794443), venetoclax (NSC766270), ceralasertib (NSC777638), bortezomib (NSC756655), olaparib (NSC753686), talazoparib (NSC767125), alisertib (NSC759677), peposertib (NSC802822), gemcitabine (NSC613327), 5-fluorouracil (NSC19893), SN-38 (NSC673596), oxaliplatin (NSC266046), paclitaxel (NSC125973), and doxorubicin (NSC123127), were obtained from the National Cancer Institute (NCI) Developmental Therapeutics Program Chemical Repository. The FDA-approved anticancer drug set is available from the Developmental Therapeutics Program at https://dtp.cancer.gov/organization/dscb/obtaining/available plates.htm. […] The stock solutions were prepared in dimethyl sulfoxide (DMSO, Sigma-Aldrich, St. Louis, MO, cat. D2650), except for the platinum complexes which were prepared in saline (Quality Biological, Gaithersburg, MD, cat. 114-055-101), at 800-fold the tested concentration and stored at -70 degrees C prior to their use. All drugs and investigational agents were tested over a range starting from a high concentration at or near the clinical Cmax and decreasing in half-log increments. If the clinical Cmax for an agent had not been determined, the highest concentration tested was 10 microM.
Cell Culture. All cells were maintained in an incubator at 37 degrees C and 5% CO2 with 95% humidity. The PDC lines were cultured according to standard operating procedures established by the NCI PDMR. Briefly, all PDCs were thawed and cultured in Matrigel-coated flasks prepared with a working solution of 1X Ham's F-12 nutrient mix, without supplementation (Invitrogen, Waltham, MA, cat. 11765054), 100 U/mL penicillin-streptomycin (Invitrogen, cat. 15140122), and 2.5% Matrigel (Corning Inc., Corning, NY, cat. 354248) for the first three passages. The 947758-054-R-J2-PDC line was cultured in 6B/Colon 1A media, which includes advanced DMEM/F-12 (Thermo Fisher Scientific, cat. 12634028), 10 mM HEPES (Thermo Fisher Scientific, cat. 15630080), 1X GlutaMAX supplement (Thermo Fisher Scientific, cat. 35050061), 0.1 mg/mL primocin (InvivoGen, cat. ant-pm-2), 10% defined fetal bovine serum, heat inactivated (HyClone Laboratories Inc., cat. SH30070.03HI), 1.25 mM N-Acetyl-L-cysteine (Sigma-Aldrich, cat. A9165), 10 mM nicotinamide (Sigma-Aldrich, cat. N0636), 1X B-27 supplement (Thermo Fisher Scientific, cat. 17504044), 1X N-2 supplement (Thermo Fisher Scientific, cat. 17502048), and 10 microM Y-27632 dihydrochloride (Tocris Bioscience, cat. 1254). The 876862-298-R-J1-PDC was cultured in 6E media, which includes all 6B/Colon 1A media components plus 50% L-WRN conditioned media (ATCC, cat. CRL-3276), 50 ng/mL recombinant human EGF recombinant protein (hEGF; Thermo Fisher Scientific, cat. PHG0311), 10 ng/mL recombinant human fibroblast growth factor 10 (hGFG-10; PeproTech, cat. 100-26), 1 ng/mL recombinant human fibroblast growth factor 2 (hFGF-2; PeproTech, cat. 100-18B), and 1 µM prostaglandin E2 (PGE2; Tocris, cat. 2296). The 227483-062-R1-J1-PDC line was cultured in Panc media, containing all 6E components except hFGF-2, with the addition of 500 nM SB-431542 (Selleckchem, cat. S1067) and 10 nM gastrin (Tocris, cat. 3006). […]
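Further: spheroids exposed to the agents for seven days.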

One may read the viability, T/C as the result in the treated group divided by that in the control group, in per cent. By pIC50 is commonly meant −log10 of the IC50, conventionally taken in molar units. With `COc1cccc2c1C(=O)c1c(O)c3c(c(O)c1C2=O)CC(O)(C(=O)CO)CC3OC1CC(N)C(O)C(C)O1` (configuration not stated), the viability, T/C is, setting by setting: (compound 0.0316 µM) 37% and 29.8%; (compound 0.1 µM) 25.2% and 19.9%; (compound 0.316 µM) 9.16% and 2.97%; (compound 1 µM) 0.48% and 0.17%; (compound 3.16 µM) 1.37% and 0.12%; (compound 10 µM) 2.47% and 0.67%. Moreover, the pIC50 (curve of compound) was > 7.50.
